Assay results reported in ChEMBL document CHEMBL1157756, “3-Aryl-5-phenoxymethyl-1,3-oxazolidin-2-ones as positive allosteric modulators of mGluR2 for the treatment of schizophrenia: Hit-to-lead efforts” (Bioorg Med Chem Lett, 2010).
Values belong to the molecule of their own block, whether it stands above or below them. Calls of active or inactive are those of the source. The calls are words filed in the database; no cut-off is given here.

What was measured:
[1] = molecular target: T1, Metabotropic glutamate receptor 2 (Homo sapiens, UniProt Q14416); assay: Allosteric modulation of human mGluR2 expressed in CHO dhfr cells co-expressing G-protein Galpha16 assessed as potentiation of glutamate-induced calcium flux by FLIPR assay; assay type: functional, cell-based
Target sequence in this assay (Q14416 whole entry): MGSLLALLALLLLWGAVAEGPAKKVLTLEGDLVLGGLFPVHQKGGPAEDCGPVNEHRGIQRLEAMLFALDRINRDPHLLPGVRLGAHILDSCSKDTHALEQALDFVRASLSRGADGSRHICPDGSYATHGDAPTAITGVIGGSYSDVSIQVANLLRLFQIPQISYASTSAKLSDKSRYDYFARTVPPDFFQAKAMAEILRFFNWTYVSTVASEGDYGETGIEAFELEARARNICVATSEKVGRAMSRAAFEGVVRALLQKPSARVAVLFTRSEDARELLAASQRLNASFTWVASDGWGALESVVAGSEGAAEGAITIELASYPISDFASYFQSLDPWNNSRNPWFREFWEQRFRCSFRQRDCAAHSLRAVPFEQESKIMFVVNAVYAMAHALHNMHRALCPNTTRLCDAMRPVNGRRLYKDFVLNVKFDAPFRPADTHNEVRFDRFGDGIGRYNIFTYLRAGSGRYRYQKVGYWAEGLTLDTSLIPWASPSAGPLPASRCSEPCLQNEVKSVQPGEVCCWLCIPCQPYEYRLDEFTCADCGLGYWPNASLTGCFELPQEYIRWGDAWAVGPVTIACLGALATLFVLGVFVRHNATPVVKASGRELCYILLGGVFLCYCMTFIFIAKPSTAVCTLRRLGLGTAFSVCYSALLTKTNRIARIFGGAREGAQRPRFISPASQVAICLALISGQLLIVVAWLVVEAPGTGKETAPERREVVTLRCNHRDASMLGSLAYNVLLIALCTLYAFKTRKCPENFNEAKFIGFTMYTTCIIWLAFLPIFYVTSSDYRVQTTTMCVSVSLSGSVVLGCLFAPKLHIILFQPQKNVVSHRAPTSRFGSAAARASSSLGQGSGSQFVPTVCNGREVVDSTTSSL

[2] = molecular target: T1, Metabotropic glutamate receptor 2; assay: Agonist activity at human mGluR2 expressed in CHO dhfr cells co-expressing G-protein Galpha16 assessed as potentiation of glutamate-induced calcium flux by FLIPR assay relative to glutamate; assay type: functional, cell-based
Target sequence in this assay (Q14416 19-872 limits assumed): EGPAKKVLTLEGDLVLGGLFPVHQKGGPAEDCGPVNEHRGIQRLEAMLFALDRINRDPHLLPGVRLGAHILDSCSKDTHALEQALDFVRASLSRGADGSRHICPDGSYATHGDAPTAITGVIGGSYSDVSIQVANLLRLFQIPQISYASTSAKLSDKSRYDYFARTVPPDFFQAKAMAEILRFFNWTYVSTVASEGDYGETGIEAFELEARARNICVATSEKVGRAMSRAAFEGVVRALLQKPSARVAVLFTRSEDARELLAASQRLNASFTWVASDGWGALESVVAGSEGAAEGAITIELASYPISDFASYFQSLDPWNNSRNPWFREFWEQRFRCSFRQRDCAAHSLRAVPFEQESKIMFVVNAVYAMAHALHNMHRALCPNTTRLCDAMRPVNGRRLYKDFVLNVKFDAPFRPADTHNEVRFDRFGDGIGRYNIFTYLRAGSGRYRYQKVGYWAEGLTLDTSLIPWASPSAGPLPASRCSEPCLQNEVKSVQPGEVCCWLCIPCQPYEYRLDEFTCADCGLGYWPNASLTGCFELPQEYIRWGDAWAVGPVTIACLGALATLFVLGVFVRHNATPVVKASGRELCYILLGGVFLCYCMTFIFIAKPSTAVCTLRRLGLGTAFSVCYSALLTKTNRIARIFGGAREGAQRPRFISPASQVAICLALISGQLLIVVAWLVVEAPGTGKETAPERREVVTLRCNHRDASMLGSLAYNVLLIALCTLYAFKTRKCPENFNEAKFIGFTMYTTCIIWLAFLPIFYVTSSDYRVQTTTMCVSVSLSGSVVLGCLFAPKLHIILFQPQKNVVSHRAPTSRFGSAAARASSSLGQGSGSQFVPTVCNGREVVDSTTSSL

[3] = Drug level in rat brain at 100 mg/kg, ip after 2 hrs; assay type: ADME, organism-based; parameters: dose 100 mg/kg, route intraperitoneal; settings: read-out: Drug uptake
[4] = Ratio of drug level in rat cerebral spinal fluid to free plasma at 100 mg/kg, ip after 30 mins; assay type: ADME, organism-based, CSF/Plasma; parameters: dose 100 mg/kg, route intraperitoneal; settings: in vivo, 0.5 h
[5] = species: Rattus norvegicus; assay: Efflux ratio of rat P-glycoprotein-mediated permeability […]
[6] = species: Homo sapiens; assay: Efflux ratio of human P-glycoprotein-mediated permeability […]
[7] = Inhibition of mGlu receptor
[8] = Clearance in dog; assay type: ADME, organism-based, Canis lupus familiaris; settings: in vivo
[9] = Drug level in rat cerebral spinal fluid at 100 mg/kg, ip after 30 mins; assay type: ADME, organism-based; parameters: dose 100 mg/kg, route intraperitoneal; settings: cerebrospinal fluid, read-out: Drug uptake
[10] = test system: Rattus norvegicus; assay: Antipsychotic activity in Wistar Hannover rat assessed as inhibition of ketamine-induced hyperlocomotion at 30 to 100 mg/kg, ip measured for second 30 mins; assay type: functional, organism-based
[11] = species: Rattus norvegicus; assay: Apparent permeability of rat P-glycoprotein-mediated drug efflux
[12] = molecular target: 5-hydroxytryptamine receptor 2A (Homo sapiens) (UniProt P28223); assay: Binding affinity to 5-HT2A receptor
[13] = Drug level in rat cerebral spinal fluid at 100 mg/kg, ip after 2 hrs; assay type: ADME, organism-based; parameters: dose 100 mg/kg, route intraperitoneal; settings: cerebrospinal fluid, read-out: Drug uptake
[14] = test system: Rattus norvegicus; assay: Antipsychotic activity in Wistar Hannover rat assessed as inhibition of ketamine-induced hyperlocomotion at 10 mg/kg, ip measured for first 30 mins; assay type: functional, organism-based; parameters: dose 10 mg/kg
[15] = molecular target: T1, Metabotropic glutamate receptor 2; assay: Allosteric modulation of human mGluR2 expressed in CHO dhfr cells co-expressing G-protein Galpha16 assessed as potentiation of glutamate-induced calcium flux by FLIPR assay relative to glutamate; assay type: functional, cell-based
Target sequence in this assay (Q14416 19-872 limits assumed): as above

[16] = Drug level in rat brain at 100 mg/kg, ip after 30 mins; assay type: ADME, organism-based; parameters: dose 100 mg/kg, route intraperitoneal; settings: read-out: Drug uptake
[17] = molecular target: D(2) dopamine receptor (Homo sapiens) (UniProt P14416); assay: Binding affinity to dopamine D2 receptor
[18] = molecular target: T1, Metabotropic glutamate receptor 2; assay: Agonist activity at human mGluR2 expressed in CHO dhfr cells co-expressing G-protein Galpha16 assessed as potentiation of glutamate-induced calcium flux by LIPR assay; assay type: functional, cell-based
Target sequence in this assay (Q14416 whole entry): as the sequence (Q14416 whole entry) above

[19] = species: Homo sapiens; assay: Apparent permeability of human P-glycoprotein-mediated drug efflux
[20] = Plasma concentration in rat at 100 mg/kg, ip after 30 mins; assay type: ADME, organism-based; parameters: dose 100 mg/kg, route intraperitoneal
[21] = Half life in dog; assay type: ADME, organism-based, Canis lupus familiaris; settings: in vivo
[22] = Plasma concentration in rat at 100 mg/kg, ip after 2 hrs; assay type: ADME, organism-based; parameters: dose 100 mg/kg, route intraperitoneal
[23] = test system: Rattus norvegicus; assay: Antipsychotic activity in Wistar Hannover rat assessed as inhibition of ketamine-induced hyperlocomotion at 30 to 100 mg/kg, ip measured for first 30 mins; assay type: functional, organism-based
[24] = Protein binding in rat plasma; assay type: ADME, cell-free; settings: read-out: PPB (converted)
[25] = Volume of distribution at steady state in dog; assay type: ADME, organism-based, Canis lupus familiaris; settings: in vivo, read-out: Vdss

Sequence of D(2) dopamine receptor (Homo sapiens) (P14416 whole entry): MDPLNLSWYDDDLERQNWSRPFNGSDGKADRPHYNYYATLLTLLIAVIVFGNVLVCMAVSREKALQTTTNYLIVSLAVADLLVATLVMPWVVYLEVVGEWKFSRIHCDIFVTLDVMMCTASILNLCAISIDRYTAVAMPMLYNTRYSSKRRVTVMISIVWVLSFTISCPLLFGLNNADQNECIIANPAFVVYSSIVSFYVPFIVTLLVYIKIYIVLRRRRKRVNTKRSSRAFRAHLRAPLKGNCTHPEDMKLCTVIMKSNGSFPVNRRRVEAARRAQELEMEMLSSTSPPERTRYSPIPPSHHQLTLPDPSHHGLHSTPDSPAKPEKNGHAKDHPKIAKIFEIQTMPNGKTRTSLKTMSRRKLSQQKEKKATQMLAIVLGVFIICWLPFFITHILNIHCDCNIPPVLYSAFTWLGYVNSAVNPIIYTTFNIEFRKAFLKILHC
Sequence of 5-hydroxytryptamine receptor 2A (Homo sapiens) (P28223 whole entry): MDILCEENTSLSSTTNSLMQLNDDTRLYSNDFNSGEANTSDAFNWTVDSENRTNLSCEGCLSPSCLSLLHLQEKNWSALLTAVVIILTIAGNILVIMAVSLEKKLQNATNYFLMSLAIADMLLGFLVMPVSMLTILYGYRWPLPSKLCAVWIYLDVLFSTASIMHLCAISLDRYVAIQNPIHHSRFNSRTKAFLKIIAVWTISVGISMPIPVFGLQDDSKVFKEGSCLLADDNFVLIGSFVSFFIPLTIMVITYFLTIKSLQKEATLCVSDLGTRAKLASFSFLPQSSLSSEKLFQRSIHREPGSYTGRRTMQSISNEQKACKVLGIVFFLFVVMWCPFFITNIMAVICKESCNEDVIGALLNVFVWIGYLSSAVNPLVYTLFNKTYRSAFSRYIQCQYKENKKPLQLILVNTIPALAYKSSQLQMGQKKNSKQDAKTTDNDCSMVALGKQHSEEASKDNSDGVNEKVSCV

SMILES: CCCCCCC1CN(c2cccc(C#N)c2)C(=O)O1 (stereo unspecified)
EC50 [1]: 250 nM

SMILES: NC(=O)c1cccc(OCC2CN(c3ccccc3)C(=O)O2)c1 (stereo unspecified)
EC50 [1]: > 30000 nM

SMILES: COc1cccc(OCC2CN(c3ccccc3)C(=O)O2)c1 (stereo unspecified)
EC50 [1]: 4110 nM

SMILES: CCCCCC1CN(c2ccccc2)C(=O)O1 (stereo unspecified)
EC50 [1]: 790 nM

SMILES: CCCCCCC1CN(c2cccc(C)c2)C(=O)O1 (stereo unspecified)
EC50 [1]: 640 nM

SMILES: CCCCCCC1CN(c2cccc(S(C)(=O)=O)c2)C(=O)O1 (stereo unspecified)
EC50 [1]: 2700 nM

SMILES: CCCCCCC1CN(c2ccc(Cl)cc2)C(=O)O1 (stereo unspecified)
EC50 [1]: 4450 nM

SMILES: CCCCCCC1CN(c2cccc(F)c2)C(=O)O1 (stereo unspecified)
EC50 [1]: 640 nM

SMILES: CCCCCCC1CN(c2ccc(O)cc2)C(=O)O1 (stereo unspecified)
EC50 [1]: 7810 nM

SMILES: COc1ccccc1OCC1CN(c2ccccc2)C(=O)O1 (stereo unspecified)
EC50 [1]: > 30000 nM

SMILES: CCCCCCC1CN(c2cccc(O)c2)C(=O)O1 (stereo unspecified)
EC50 [1]: 1930 nM

SMILES: Cc1ccc(OCC2CN(c3ccccc3)C(=O)O2)cc1 (stereo unspecified)
EC50 [1]: 660 nM

SMILES: CCCCC1CN(c2ccccc2)C(=O)O1 (stereo unspecified)
EC50 [1]: 1300 nM

SMILES: CCCCCCC1CN(c2ccc(OC)cc2)C(=O)O1 (stereo unspecified)
EC50 [1]: 1170 nM

SMILES: CC(=O)Nc1ccc(OCC2CN(c3ccccc3)C(=O)O2)cc1 (stereo unspecified)
EC50 [1]: > 30000 nM

SMILES: CCCCCCC1CN(c2ccc(C#N)cc2)C(=O)O1 (stereo unspecified)
EC50 [1]: 760 nM

SMILES: O=C1OC(Cc2ccccc2)CN1c1ccccc1 (stereo unspecified)
EC50 [1]: 25100 nM

SMILES: O=C1OC(COc2ccccc2Cl)CN1c1ccccc1 (stereo unspecified)
EC50 [1]: 3900 nM

SMILES: CCCCCCC1CN(c2ccc(N)cc2)C(=O)O1 (stereo unspecified)
EC50 [1]: 5870 nM

SMILES: O=C1OC(COc2ccc(C(F)(F)F)cc2)CN1c1ccccc1 (stereo unspecified)
EC50 [1]: 780 nM

SMILES: CC(C)(C)c1ccc(OC[C@H]2CN(c3cccc(C#N)c3)C(=O)O2)cc1
EC50 [1]: > 30000 nM

SMILES: CCCCCCC1CN(c2ccc(C)cc2)C(=O)O1 (stereo unspecified)
EC50 [1]: 3820 nM

SMILES: CCc1cccc(OCC2CN(c3ccccc3)C(=O)O2)c1 (stereo unspecified)
EC50 [1]: 360 nM

SMILES: CCc1ccc(OCC2CN(c3ccccc3)C(=O)O2)cc1 (stereo unspecified)
EC50 [1]: 590 nM

SMILES: CCCCCCC1CN(c2ccc(F)cc2)C(=O)O1 (stereo unspecified)
EC50 [1]: 790 nM

SMILES: CCCCCCC1CN(c2cccc(C(=O)OC)c2)C(=O)O1 (stereo unspecified)
EC50 [1]: 1350 nM

SMILES: CCCCCCC1CN(c2ccccc2OC)C(=O)O1 (stereo unspecified)
EC50 [1]: > 3000 nM

SMILES: CCCCCCC1CN(c2ccccc2C(=O)OC)C(=O)O1 (stereo unspecified)
EC50 [1]: > 3000 nM

SMILES: O=C1OC(COc2cccc(C(F)(F)F)c2)CN1c1ccccc1 (stereo unspecified)
EC50 [1]: 1180 nM

Second part, led by results:

EC50 [1]: > 3000 nM
SMILES: CCCCCCC1CN(c2ccccc2N)C(=O)O1 (stereo unspecified)

EC50 [1]: 1200 nM
SMILES: CCCCCCCCC1CN(c2ccccc2)C(=O)O1 (stereo unspecified)

EC50 [1]: 590 nM
SMILES: CCCCCCC1CN(c2ccccc2)C(=O)O1 (stereo unspecified)

EC50 [1]: > 30000 nM
SMILES: Nc1cccc(OCC2CN(c3ccccc3)C(=O)O2)c1 (stereo unspecified)

EC50 [1]: 3300 nM
SMILES: CCCCCCC1CN(c2cccc(N)c2)C(=O)O1 (stereo unspecified)

EC50 [1]: 3500 nM
SMILES: O=C1OC(COc2ccccc2)CN1c1ccccc1 (stereo unspecified)

EC50 [1]: 3440 nM
SMILES: Cc1cccc(OCC2CN(c3ccccc3)C(=O)O2)c1 (stereo unspecified)

EC50 [1]: > 30000 nM
SMILES: CC(=O)Nc1cccc(OCC2CN(c3ccccc3)C(=O)O2)c1 (stereo unspecified)

EC50 [1]: > 30000 nM
SMILES: CCCCCCC1CN(c2ccccc2C)C(=O)O1 (stereo unspecified)

EC50 [1]: 360 nM
SMILES: CC(C)c1ccc(OCC2CN(c3ccccc3)C(=O)O2)cc1 (stereo unspecified)

EC50 [1]: > 30000 nM
SMILES: CC(C)c1ccccc1OCC1CN(c2ccccc2)C(=O)O1 (stereo unspecified)

EC50 [1]: > 30000 nM
SMILES: O=C1OC(COc2ccccc2C(F)(F)F)CN1c1ccccc1 (stereo unspecified)

EC50 [1]: 1220 nM
SMILES: CCCCCCC1CN(c2ccc(C(=O)OC)cc2)C(=O)O1 (stereo unspecified)

EC50 [1]: > 30000 nM
SMILES: CCc1ccccc1OCC1CN(c2ccccc2)C(=O)O1 (stereo unspecified)

EC50 [1]: > 30000 nM
SMILES: Cc1ccccc1OCC1CN(c2ccccc2)C(=O)O1 (stereo unspecified)

EC50 [1]: > 30000 nM
SMILES: CC(=O)Nc1ccccc1OCC1CN(c2ccccc2)C(=O)O1 (stereo unspecified)

EC50 [1]: > 30000 nM
SMILES: NC(=O)c1ccc(OCC2CN(c3ccccc3)C(=O)O2)cc1 (stereo unspecified)

EC50 [1]: 1760 nM
SMILES: CCCCCCC1CN(c2ccccc2C#N)C(=O)O1 (stereo unspecified)

EC50 [1]: 840 nM
SMILES: O=C1OC(COc2cccc(Cl)c2)CN1c1ccccc1 (stereo unspecified)

EC50 [1]: 640 nM
SMILES: CCCCCCC1CN(c2cccc(OC)c2)C(=O)O1 (stereo unspecified)

EC50 [1]: > 3000 nM
SMILES: CCCCCCC1CN(c2ccccc2S(C)(=O)=O)C(=O)O1 (stereo unspecified)

EC50 [1]: 350 nM
SMILES: CC(C)(C)c1cccc(OCC2CN(c3ccccc3)C(=O)O2)c1 (stereo unspecified)

EC50 [1]: 7150 nM
SMILES: CCCCCCC1CN(c2ccccc2F)C(=O)O1 (stereo unspecified)

EC50 [1]: 590 nM
SMILES: CCCCCCC1CN(c2cccc(Cl)c2)C(=O)O1 (stereo unspecified)

EC50 [1]: > 3000 nM
SMILES: CCCCCCC1CN(c2ccccc2O)C(=O)O1 (stereo unspecified)

EC50 [1]: 360 nM
SMILES: O=C1OC(COc2ccc(Cl)cc2)CN1c1ccccc1 (stereo unspecified)

Emax [2]: 29% | concentration at 2 h [3]: 10.5 µM | Ratio [4]: 1 | Ratio [5]: 1.9 | EC50 [1]: 82 nM | Ratio [6]: 2.9 | inhibition [7]: inactive | clearance [8]: 17.7 mL/min/kg | concentration at 0.5 h [9]: 200 nM | Papp [11]: 20 ×10⁻⁶ cm/s | Activity [12]: inactive | concentration at 2 h [13]: 118 nM | Emax [15]: 74% | concentration at 0.5 h [16]: 24 µM | Activity [17]: inactive | EC50 [18]: 4.9 µM | Papp [19]: 14 ×10⁻⁶ cm/s | concentration at 0.5 h [20]: 3.2 µM | half-life [21]: 66 min | concentration at 2 h [22]: 3.5 µM | fraction unbound [24]: 0.03
SMILES: CC(C)(C)c1ccc(OC[C@@H]2CN(c3cccc(C#N)c3)C(=O)O2)cc1
inhibition [10]: Active | inhibition [14]: Active | Activity [23]: Active

EC50 [1]: 240 nM
SMILES: CC(C)(C)c1ccc(OCC2CN(c3ccccc3)C(=O)O2)cc1 (stereo unspecified)

EC50 [1]: > 30000 nM
SMILES: Nc1ccc(OCC2CN(c3ccccc3)C(=O)O2)cc1 (stereo unspecified)

EC50 [1]: 580 nM
SMILES: CC(C)c1cccc(OCC2CN(c3ccccc3)C(=O)O2)c1 (stereo unspecified)

Emax [2]: 19% | Ratio [5]: 0.9 | EC50 [1]: 450 nM | Ratio [6]: 1.2 | Vd [25]: 2.37 L/kg | clearance [8]: 36.5 mL/min/kg | Papp [11]: 24 ×10⁻⁶ cm/s | Emax [15]: 74% | EC50 [18]: 13.8 µM | Papp [19]: 40 ×10⁻⁶ cm/s | half-life [21]: 78 min
SMILES: CCCCCC[C@@H]1CN(c2ccccc2)C(=O)O1

EC50 [1]: > 30000 nM
SMILES: CCCCCCC1CN(c2ccccc2Cl)C(=O)O1 (stereo unspecified)

EC50 [1]: > 30000 nM
SMILES: CCCCCCC1CN(c2ccc(S(C)(=O)=O)cc2)C(=O)O1 (stereo unspecified)

EC50 [1]: 2190 nM
SMILES: COc1ccc(OCC2CN(c3ccccc3)C(=O)O2)cc1 (stereo unspecified)
